Assay results as given in patent publication US10392383B2, “3-(1H-benzo[d]imidazol-2-yl)-1H-pyrazolo[4,3-b]pyridines and therapeutic uses thereof” (Samumed, LLC, priority 2015, dated 2019).

Test system: primary human mesenchymal stem cells (hMSCs)
Experiment: Induction of chondrogenesis in human mesenchymal stem cells (nodule staining with Rhodamine B / Nile Red)
Assay type: cell-based
Conditions: for Emax: TGF-β3 (10 ng/mL) as positive control, read-out: Max. Activity as % TGF-β3 activity; for EC50: concentration required to induce 50% levels of chondrogenesis vs TGF-β3, read-out: Conc (nM) of 50% TGF-β3 activity
Description: Representative compounds were screened using primary human mesenchymal stem cells (hMSCs) to determine their ability to induce chondrogenesis (process by which cartilage is developed).
Human Mesenchymal Stem Cell Culture: Primary human mesenchymal stem cells (hMSCs) were purchased from Lonza (Walkersville, Md.) and expanded in Mesenchymal Stem Cell Growth Media (Lonza). Cells between passage 3 and 6 were used for the experiments.
Compound Screening: Each compound was dissolved in DMSO as a 10 mM stock and used to prepare compound source plates. For the 96 well assay, serial dilution (1:3, 6-point dose-response curves from 2700 nM to 10 nM) and compound transfer was performed using the ECHO 550 (Labcyte, Sunnyvale, Calif.) into 96-well clear bottom assay plates (Greiner Bio-One) with appropriate DMSO backfill for a final DMSO concentration of 0.03%. hMSCs were plated at 20,000 cells/well in 250 μL/well Incomplete Chondrogenic Induction Medium (Lonza; DMEM, dexamethasone, ascorbate, insulin-transferrin-selenium [ITS supplement], gentamycin-amphotericin [GA-1000], sodium pyruvate, proline and L-glutamine). TGF-β3 (10 ng/mL) was used as a positive control for differentiation while negative control wells were treated with 75 nL DMSO for normalization and calculating EC50 values. For the 384 well assay, serial dilution (1:3, 8-point dose-response curves from 5000 nM to 2.2 nM) and compound transfer was performed using the ECHO 550 (Labcyte, Sunnyvale, Calif.) into 384-well clear bottom assay plates (Greiner Bio-One) with appropriate DMSO backfill for a final DMSO concentration of 0.03%. hMSCs were plated at 8,000 cells/well in 80 μL/well Incomplete Chondrogenic Induction Medium (Lonza; DMEM, dexamethasone, ascorbate, insulin-transferrin-selenium [ITS supplement], gentamycin-amphotericin [GA-1000], sodium pyruvate, proline and L-glutamine). TGF-β3 (10 ng/mL) was used as a positive control for differentiation while negative control wells were treated with 25 nL DMSO for normalization and calculating EC50 values. Cells were incubated at 37° C. and 5% CO2 for 6 days. To image chondrogenic nodules, the cells were fixed using 4% formaldehyde (Electron Microscopy Sciences), and stained with 2 μg/mL Rhodamine B (Sigma-Aldrich) and 20 μM Nile Red (Sigma-Aldrich) [Johnson K., et. al, A Stem Cell-Based Approach to Cartilage Repair, Science, (2012), 336(6082), 717-721]. The nodules imaged (25 images per well for 96 well plates and 9 images per well for 384 well plates at 10× magnification) by excitation at 531 nm and emission at 625 nm and quantified using the CellInsight CX5 (Thermo Scientific). Area of nodules in each well was normalized to the average of 3 DMSO treated wells on the same plate using Excel (Microsoft Inc.). The normalized averages (fold change over DMSO) of 2 or 3 replicate wells for each compound concentration were calculated. Due to solubility limitations of some of the compounds, curve fitting was incomplete leading to inaccurate EC50 determinations.
Using TGF-β3 as a positive control, the concentration of representative compounds required to induce 50% levels of chondrogenesis is reported. In addition, the maximum activity of each compound and the respective dose that each compound reached maximum chondrogenesis activity is reported.

EC50 [nM] | SMILES | Emax [%]
1670 | CCNCc1cncc(-c2ccc3[nH]nc(-c4nc5c(-c6ccccn6)cccc5[nH]4)c3n2)c1 [Compound 146, N-((5-(3-(4-(Pyridin-2-yl)-1H-benzo[d]imidazol-2-yl)-1H-pyrazolo[4,3-b]pyridin-5-yl)pyridin-3-yl)methyl)ethanamine] | 279
900 | COc1cccc(-c2cccc3[nH]c(-c4n[nH]c5ccc(-c6cncc(NC(=O)Cc7ccccc7)c6)nc45)nc23)c1 [Compound 1000, N-(5-(3-(4-(3-Methoxyphenyl)-1H-benzo[d]imidazol-2-yl)-1H-pyrazolo[4,3-b]pyridin-5-yl)pyridin-3-yl)-2-phenylacetamide] | 50
10 | CN(C)CCOc1cncc(-c2ccc3[nH]nc(-c4nc5c(-c6cccs6)cccc5[nH]4)c3n2)c1 [Compound 707, N,N-Dimethyl-2-((5-(3-(4-(thiophen-2-yl)-1H-benzo[d]imidazol-2-yl)-1H-pyrazolo[4,3-b]pyridin-5-yl)pyridin-3-yl)oxy)ethan-1-amine] | 142
30 | CC(C)(C)C(=O)Nc1cncc(-c2ccc3[nH]nc(-c4nc5c(-c6ccc(F)cc6)cccc5[nH]4)c3n2)c1 [Compound 36, N-(5-(3-(4-(4-Fluorophenyl)-1H-benzo[d]imidazol-2-yl)-1H-pyrazolo[4,3-b]pyridin-5-yl)pyridin-3-yl)pivalamide] | 86
100 | COc1cccc(-c2cccc3[nH]c(-c4n[nH]c5ccc(-c6cccnc6)nc45)nc23)c1 [Compound 994, 3-(4-(3-Methoxyphenyl)-1H-benzo[d]imidazol-2-yl)-5-(pyridin-3-yl)-1H-pyrazolo[4,3-b]pyridine] | 70
– | Fc1cccc(-c2cccc3[nH]c(-c4n[nH]c5ccc(-c6cn[nH]c6)nc45)nc23)c1 [Compound 507, 3-(4-(3-Fluorophenyl)-1H-benzo[d]imidazol-2-yl)-5-(1H-pyrazol-4-yl)-1H-pyrazolo[4,3-b]pyridine] | 53
30 | Nc1cncc(-c2ccc3[nH]nc(-c4nc5c(-c6ccccc6F)cccc5[nH]4)c3n2)c1 [Compound 59, 5-(3-(4-(2-Fluorophenyl)-1H-benzo[d]imidazol-2-yl)-1H-pyrazolo[4,3-b]pyridin-5-yl)pyridin-3-amine] | 82
1670 | CCC(=O)Nc1cncc(-c2ccc3[nH]nc(-c4nc5c(N6CCCCC6)cccc5[nH]4)c3n2)c1 [Compound 169, N-(5-(3-(4-(Piperidin-1-yl)-1H-benzo[d]imidazol-2-yl)-1H-pyrazolo[4,3-b]pyridin-5-yl)pyridin-3-yl)propionamide] | 66
10 | O=C(Nc1cncc(-c2ccc3[nH]nc(-c4nc5c(-c6ccc(Cl)s6)cccc5[nH]4)c3n2)c1)C1CCC1 [Compound 1056, N-(5-(3-(4-(5-Chlorothiophen-2-yl)-1H-benzo[d]imidazol-2-yl)-1H-pyrazolo [4,3-b]pyridin-5-yl)pyridin-3-yl)cyclobutanecarboxamide] | 100
10 | CC(C)CC(=O)Nc1cncc(-c2ccc3[nH]nc(-c4nc5c(-c6ccc(Cl)s6)cccc5[nH]4)c3n2)c1 [Compound 1037, N-(5-(3-(4-(5-Chlorothiophen-2-yl)-1H-benzo[d]imidazol-2-yl)-1H-pyrazolo [4,3-b]pyridin-5-yl)pyridin-3-yl)-3-methylbutanamide] | 56
– | CC(C)C(=O)Nc1cncc(-c2ccc3[nH]nc(-c4nc5c(-c6cccnc6)cccc5[nH]4)c3n2)c1 [Compound 93, N-(5-(3-(4-(Pyridin-3-yl)-1H-benzo[d]imidazol-2-yl)-1H-pyrazolo[4,3-b]pyridin-5-yl)pyridin-3-yl)isobutyramide] | 36
– | O=C(Nc1cncc(-c2ccc3[nH]nc(-c4nc5c(-c6ccccc6F)cccc5[nH]4)c3n2)c1)C(F)(F)F [Compound 1126, 2,2,2-Trifluoro-N-(5-(3-(4-(2-fluorophenyl)-1H-benzo[d]imidazol-2-yl)-1H-pyrazolo[4,3-b]pyridin-5-yl)pyridin-3-yl)acetamide] | 40
10 | Fc1ccc(-c2cccc3[nH]c(-c4n[nH]c5ccc(-c6cncnc6)nc45)nc23)cc1 [Compound 55, 3-(4-(4-Fluorophenyl)-1H-benzo[d]imidazol-2-yl)-5-(pyrimidin-5-yl)-1H-pyrazolo[4,3-b]pyridine] | 96
– | Fc1cccc(-c2cccc3[nH]c(-c4n[nH]c5ccc(C6=CCNCC6)nc45)nc23)c1 [Compound 506, 3-(4-(3-Fluorophenyl)-1H-benzo[d]imidazol-2-yl)-5-(1,2,3,6-tetrahydropyridin-4-yl)-1H-pyrazolo[4,3-b]pyridine] | 42
2 | Fc1cccc(-c2cccc3[nH]c(-c4n[nH]c5ccc(-c6cnccn6)nc45)nc23)c1 [Compound 520, 3-(4-(3-Fluorophenyl)-1H-benzo[d]imidazol-2-yl)-5-(pyrazin-2-yl)-1H-pyrazolo[4,3-b]pyridine] | 64
– | CN(C)CC(=O)Nc1cncc(-c2ccc3[nH]nc(-c4nc5c(-c6cccc(F)c6)cccc5[nH]4)c3n2)c1 [Compound 969, 2-(Dimethylamino)-N-(5-(3-(4-(3-fluorophenyl)-1H-benzo[d]imidazol-2-yl)-1H-pyrazolo[4,3-b]pyridin-5-yl)pyridin-3-yl)acetamide] | 44
300 | O=C(Cc1ccccc1)Nc1cncc(-c2ccc3[nH]nc(-c4nc5c(-c6ccncc6)cccc5[nH]4)c3n2)c1 [Compound 122, 2-Phenyl-N-(5-(3-(4-(pyridin-4-yl)-1H-benzo[d]imidazol-2-yl)-1H-pyrazolo [4,3-b]pyridin-5-yl)pyridin-3-yl)acetamide] | 75
2700 | CCCC(=O)Nc1cncc(-c2ccc3[nH]nc(-c4nc5c(-c6ccncc6)cccc5[nH]4)c3n2)c1 [Compound 129, N-(5-(3-(4-(Pyridin-4-yl)-1H-benzo[d]imidazol-2-yl)-1H-pyrazolo[4,3-b]pyridin-5-yl)pyridin-3-yl)butyramide] | 59
30 | c1cncc(-c2ccc3[nH]nc(-c4nc5c(-c6cccnc6)cccc5[nH]4)c3n2)c1 [Compound 88, 5-(Pyridin-3-yl)-3-(4-(pyridin-3-yl)-1H-benzo[d]imidazol-2-yl)-1H-pyrazolo [4,3-b]pyridine] | 58
– | Clc1ccc(-c2cccc3[nH]c(-c4n[nH]c5ccc(-c6cncc(CN7CCCC7)c6)nc45)nc23)s1 [Compound 1049, 3-(4-(5-Chlorothiophen-2-yl)-1H-benzo[d]imidazol-2-yl)-5-(5-(pyrrolidin-1-ylmethyl)pyridin-3-yl)-1H-pyrazolo[4,3-b]pyridine] | 408
30 | CN1CCN(c2cccc3[nH]c(-c4n[nH]c5ccc(-c6cncc(NC(=O)C(F)(F)F)c6)nc45)nc23)CC1 [Compound 1127, 2,2,2-Trifluoro-N-(5-(3-(4-(4-methylpiperazin-1-yl)-1H-benzo[d]imidazol-2-yl)-1H-pyrazolo[4,3-b]pyridin-5-yl)pyridin-3-yl)acetamide] | 51
– | Fc1ccc(-c2cccc3[nH]c(-c4n[nH]c5ccc(-c6cncc(CN7CCCC7)c6)nc45)nc23)cc1 [Compound 42, 3-(4-(4-Fluorophenyl)-1H-benzo[d]imidazol-2-yl)-5-(5-(pyrrolidin-1-ylmethyl)pyridin-3-yl)-1H-pyrazolo[4,3-b]pyridine] | 23
